In patent US20250221920A1, “Antioxidant Compositions” (THE BOOTS COMPANY PLC, priority 2022, published 2025):

Assay: Total Antioxidant Capacity (TAC) assay, Cell Biolabs kit, copper ion reagent, absorbance at 490 nm
Format: biochemical
Conditions: triplicate
Method: Total antioxidant capacity (TAC) was determined using a kit (Cell Biolabs, Inc) as follows; the test samples were diluted in water and a buffer to reach a final antioxidant agent to buffer ratio ranging from 1:1 to 1:1,000,000. 20 ul of test sample or control (ascorbic acid or green tea) were added to the wells of 96 well plate, followed by 180 μL of 1X Reaction Buffer (provided with the kit). The absorbance of the reaction mix in each well was measured at 490 nm to get an initial reading. 50 μL of the 1X Copper Ion Reagent (provided with the kit) were added to each well to initiate the reaction. The reaction was allowed to carry on for 5 minutes on an orbital shaker and 50 μL of 1X Stop Solution (provided with the kit) added to each well to terminate the reaction. The colour change was assessed using a plate reader at 490 nm.
The stronger the colour change at the end of the reaction, the higher the spectrophotometric value, and the higher the antioxidant capacity of the antioxidant agents.
21 antioxidant compounds were tested in triplicate at antioxidant: buffer ratios ranging from 1:1 to 1:1,000,000.
The actual TAC of each of these compounds was calculated using the TAC assay described above, and compared with the predicted values to determine the % difference in TAC.

With Dimethylmethylmethoxy chromanol the “Total Antioxidant Capacity (TAC)” value (Antioxidant:Buffer 1:1 (concentration 1)) was 1.839, the “Total Antioxidant Capacity (TAC)” value (Antioxidant:Buffer 1:10 (concentration 0.1)) was 1.807 and the “Total Antioxidant Capacity (TAC)” value (Antioxidant:Buffer 1:100 (concentration 0.01)) was 1.824.
